According to PubChem BioAssay AID1117319 (Southern Research Institute, 2015):
Inconclusive results are not listed.

These molecules were tested against Virion infectivity factor (Human immunodeficiency virus type 1 group M subtype B (isolate BH10)) + Virion infectivity factor (Human immunodeficiency virus type 1 group M subtype B (isolate BRU/LAI)) + Virion infectivity factor (Human immunodeficiency virus type 1 group M subtype B (isolate PCV12)) + Virion infectivity factor (Human immunodeficiency virus type 1 group M subtype B (isolate HXB2)) + DNA dC->dU-editing enzyme APOBEC-3G (Homo sapiens) (UniProt P69720+P69721+P69722+P69723+Q9HC16) (assay: inhibitors of Vif binding to APOBEC3G peptide, primary screen, biochemical, TR-FRET, GST-Vif 1-94, biotin-A3G peptide, dose response retest (AID 1117319);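 further: Vif residues 1-94 fused to GST binding biotinylated APOBEC3G peptide 110-148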).

Structure (SMILES) | IC50
Nc1ccc(S(=O)(=O)c2cc(O)c3ccccc3c2O)cc1 | 24.8 µM
COc1ccc(O)c(C(=O)C2c3ccccc3C(=O)N2c2ccc(C)cc2)c1 (configuration not stated) | 20.4 µM
CC(C)CCNC(=O)c1ccc2c(SCC(=O)O)c3c(nc2c1)CCC3 | 59.8 µM
COc1ccc(NC2CS(=O)(=O)CC2NCc2ccco2)cc1 (configuration not stated) | 62.7 µM
COc1ccc2nc(NNC(=O)c3cc(=O)c4ccccc4o3)sc2c1 | 26.8 µM
CCOC(=O)CNc1ccc2c(c1)OCO2 | 2.46 µM
CCOC(=O)N1CC=C2C(C#N)=C(N)C(C#N)(C#N)[C@H](c3cccs3)[C@H]2C1 | 4.68 µM
C=CC(=O)N1C/C(=C/c2ccc(F)cc2)C(=O)/C(=C\c2ccc(F)cc2)C1 | 7.41 µM
COC(=O)C1=C(C)N(Cc2ccccc2)C(=O)/C1=C\c1ccco1 | 11.2 µM
Brc1c(CSc2nnc(-c3ccco3)o2)nc2ccccn12 | 30.6 µM
CC1=C(SCc2ccccc2)C(=O)c2ccccc2C1=O | 58.1 µM
CC1CCC/C(=C\Nc2ccc(O)cc2)C1=O (configuration not stated) | 17.2 µM
Cc1ccc(Nc2ccc(N)cc2S(=O)(=O)O)cc1 | 32 µM
CN(C)c1ccc2cc(S(=O)(=O)O)cc(O)c2c1 | 10.2 µM
c1ccc2c3c([nH]c2c1)CNCC3 | 84.2 µM
C=CCn1c(Sc2nc(C)cs2)nc2c1c(=O)[nH]c(=O)n2C | 94.2 µM
CCCCC(=O)NC(=S)Nc1cc(C(=O)O)ccc1Cl | 16 µM
COc1ccc(NC(=O)CN(C)C(=O)c2cccc(-n3cccc3)c2)cc1 | 14.9 µM
COc1ccc(NC(=O)/C(C#N)=C/c2ccc(Br)o2)cc1 | 14.7 µM
CNC(=O)[C@@H]1C[C@H]1[C@@H](NC(=O)OCc1ccccc1)c1ccccc1 | 16.6 µM
O=[n+]1c2c(n([O-])c3cc(F)c(F)cc31)CCCC2 | 5.33 µM
O=C(/C=C/c1ccco1)N(c1ccccn1)c1ccccn1 | 3.05 µM

Structure (SMILES) | IC50
CCN1/C(=C/C=C/C=C/C=C/c2sc3ccccc3[n+]2CC)Sc2ccccc21 | 4.33 µM
CNC[C@H](O)c1ccc(O)c(O)c1 | 1.16 µM
c1ccc2c(c1)NCC1CCCN21 (configuration not stated) | 38.1 µM
CNc1ccc(Br)cc(C(=O)/C=C/c2cccc(OC)c2OC)c1=O | 4.1 µM
C/C(N)=C(/C#N)C(=O)CSc1nnc(NC(C)C)s1 | 9.7 µM
Nc1cccc2c(O)cc(S(=O)(=O)O)cc12 | 2 µM
CCC(C(=O)OCC(=O)Nc1ccc(SC(F)F)cc1)c1ccccc1 (configuration not stated) | 83.2 µM
CC1(C)CC(=O)C2=C(C1)NCN(Cc1ccc3c(c1)OCO3)C2 | 91.6 µM
CC(=O)c1ccc(NC(=O)CSc2nnc(-c3ccco3)c(-c3ccco3)n2)cc1 | 3.91 µM
CC(=O)NC1=NC(=O)/C(=C/c2cc(C)n(-c3cccc(C(=O)O)c3)c2C)S1 | 7.28 µM
O=C(NC1CCC(C(=O)O)CC1)OCc1ccccc1 (configuration not stated) | 12.4 µM
O=C1CCCC(O)=C1N=Nc1cccc(C(=O)O)c1 | 5.61 µM
COc1cccc(C2NC(=O)NC(O)(C(F)(F)F)C2C(=O)c2cccnc2)c1OC (configuration not stated) | 47.1 µM
O=C1NC(=S)S/C1=C\C=C\c1ccc([N+](=O)[O-])o1 | 1.84 µM
COc1ccc(-c2nc3ccccc3n2OC(=O)N(C)C)cc1 | 42.9 µM
CCCCCC#CCC#CCC#CCC#CCCCC(=O)O | 0.86 µM
O=C(O)c1cc(Nc2cc(Cl)c3nonc3c2[N+](=O)[O-])ccc1O | 57.6 µM
Cc1ccc([C@@H]2C3COCC=C3C(C#N)=C(N)C2(C#N)C#N)o1 (some centres not stated) | 10.3 µM
N#Cc1ccc(N2CCN(C(=O)c3cccc(F)c3)CC2)c(F)c1 | 91 µM
Cc1cccc(N2C(=O)NC(=O)/C(=C/c3cc4c(cc3[N+](=O)[O-])OCO4)C2=O)c1 | 59.1 µM
O=C1/C(=C/C=C/c2ccco2)SC(=S)N1c1ccc(O)cc1 | 2.57 µM
COc1cc(/C=C2\CC/C(=C\c3cc(OC)c(O)c(OC)c3)C2=O)cc(OC)c1O | 1.56 µM

Structure (SMILES) | IC50
Cc1nccn1CC(=O)N/N=C/c1ccc(O)c(O)c1 | 23.2 µM
COc1ccc(NCc2nc3ccccc3n2CCOc2ccccc2)cc1 | 49 µM
Cn1cccc1/C=C1\C(=O)NC(=O)N(Cc2ccco2)C1=O | 9.46 µM
Cc1cccc(C)c1NS(=O)(=O)c1c(C)[nH]c(=O)[nH]c1=O | 85.4 µM
CC(C)C(=O)Nc1nnc(Sc2ccc(N(C)C)cc2)s1 | 54.8 µM
O=[n+]1c2c(n([O-])c3cc(Br)ccc31)CCC2 | 19.4 µM
O=C1[C@@H]2C(Cc3ccc(O)cc3)NC3(C(=O)Nc4ccc(F)cc43)[C@@H]2C(=O)N1c1ccc(F)cc1 (some centres not stated) | 64.5 µM
Nc1ccc(N2CCN(Cc3ccccc3Cl)CC2)c(Cl)c1 | 85.1 µM
Cc1cccc(N/N=C/c2ccc(O)c(O)c2O)c1 | 9.51 µM
O=C1C(Cl)=C(N2CCCCC2)C(=O)C(Cl)=C1c1cnc(N2CCCCC2)s1 | 4.21 µM
CN(C)c1ncc(C2=C(Cl)C(=O)C(N3CCCC3)=C(Cl)C2=O)s1 | 0.38 µM
Cn1cccc1/C=C1/C(=O)NC(=O)N(Cc2ccc(F)cc2)C1=O | 8.76 µM
O=C(c1ccccc1Br)N1CCN(c2ccccc2)CC1 | 38.7 µM
CC(C)NC(=O)c1cc(-c2ccco2)nn1-c1ccc(Cl)cc1 | 13.5 µM
O=C(O)Cn1cc(/C=C2\C(=O)NC(=O)N(Cc3ccco3)C2=O)c2ccccc21 | 14.7 µM
O=[N+]([O-])c1cc(Br)c(O)c(C=Nc2ccc(N3CCOCC3)cc2)c1 | 7.19 µM
CC(CNc1ccccc1O)C(=O)O (configuration not stated) | 6.17 µM
CCc1cc(=O)oc2cc(C)c(CN3CCCC3)c(O)c12 | 4.07 µM
CC(C)Nc1ccc(Nc2ccccc2)cc1 | 9.18 µM
O=c1cc2oc3cc(O)c(O)cc3c(-c3ccccc3O)c-2cc1O | 0.84 µM
CN(CC(=O)Nc1cccc(F)c1)C(=O)c1cc(-c2ccco2)nc2ccccc12 | 4.8 µM
O=C(N/N=C/C(Br)=C/c1ccccc1)c1cc(-c2ccco2)[nH]n1 | 5.12 µM

Structure (SMILES) | IC50
O=C1CCCC(O)=C1N=Nc1ccc(S(=O)(=O)N2CCOCC2)cc1 | 6.66 µM
Cc1c(Br)c(O)c(Br)c2sc(=O)oc12 | 1.77 µM
Cc1nc2cc(-c3ccsc3-n3c(C)ccc3C)[nH]n2c(=O)c1Cl | 2.92 µM
Cc1nc(C)c(C(=O)Nc2nc3c(C)cccc3s2)o1 | 32 µM
NCCc1c[nH]c2ccccc12 | 1.66 µM
O=C1c2ccccc2C(=O)N1OCCOCCOCCBr | 92.3 µM
Cc1ccsc1C=Nc1ccc(O)cc1 | 17.1 µM
COc1cc(C(=O)OCCN2CCCCC2)ccc1O | 45.4 µM
COc1ccc(NC(=O)Nc2cccs2)cc1OC | 34.5 µM
COc1ccc(N2C3=C(CC4=C2CCCC4=O)C(=O)CCC3)cc1 | 26.3 µM
O=C(/C(=N/N=C/c1ccc(O)c(O)c1O)c1ccccc1)c1ccccc1 | 3.15 µM
O=C(C1CCCN1S(=O)(=O)c1cccc2cccnc12)N1CCN(c2ccccc2)CC1 (configuration not stated) | 40.2 µM
Cc1ccc(C)n1/N=C1/NC(=O)CS1 | 0.9 µM
Cc1ccc(Cl)cc1N1CCN(C(=O)COc2ccc3c(c2)CCC3)CC1 | 45.4 µM
Cc1c(N=C2C=C(Br)C(=O)C(Br)=C2)c(=O)n(-c2ccccc2)n1C | 14.1 µM
O=C1/C(=C/c2ccco2)Oc2c1ccc(O)c2CN1CCCCC1 | 1.36 µM
CCOC(=O)N1CCN(C(=O)c2ccc3c(SCC(=O)O)c4c(nc3c2)CCC4)CC1 | 1.9 µM
Cc1ccc(C(=O)C2=C(O)C(=O)N(c3ncccn3)C2c2ccc(F)cc2)o1 (configuration not stated) | 21.8 µM
Oc1ccc2c(c1)C1CCCC1(N1CCOCC1)O2 (configuration not stated) | 4.31 µM
Cc1ccc(C2C(C#N)=C(N)Oc3c2oc(CO)cc3=O)o1 (configuration not stated) | 2.04 µM
CCOC(=O)C1(C)NC(c2ccco2)C2C(=O)N(CC)C(=O)C21 (configuration not stated) | 99.2 µM
